Laboratory results from patent US6566389B1, “Therapeutic uses of melatonin” (Neurim Pharmaceuticals (1991) Ltd., priority 1999, dated 2003).
Marks after values point to notes of the source that are not given here.

Key:
[1] = tested on: patients with tardive dyskinesia on long-term neuroleptic treatment; assay: Randomized, double blind, crossover trial of melatonin on tardive dyskinesia severity, Abnormal Involuntary Movements Scale (AIMS); assay type: in vivo, human
Procedure: The effect of melatonin on tardive dyskinesis was determined on a trial population of 22 patients, of whom 6 were schizoaffective and 16 were paranoid schizophrenics. All patients, who had been receiving long-term neuroleptic treatment, were diagnosed according to DSM IV. They consisted of 11 men and 11 women, age 39±15 years, age range 17-61 years, of whom 19 completed the trial and are included in the results. In a randomized, double blind, crossover manner, subjects were given daily either 2×5 mg melatonin in a controlled-release formulation (Circadin™, Neurim Pharmaceuticals, Israel), two hours before bedtime, or a placebo of identical appearance, for a period of six weeks, with a four week placebo wash-out between two treatment periods. […] During the last week of each treatment period, TD severity was assessed using the Abnormal Involuntary Movements Scale (AIMS) and comparisons were made between placebo or melatonin treatments, and baseline.

[2] = tested on: pinealectomized rats treated with haloperidol; details: 4 mg, i.p., within one hour; cited from earlier work

## COc1ccc2[nH]cc(CCNC(C)=O)c2c1 [melatonin]
[1]; arms, hands, baseline/administration difference, placebo vs. melatonin
  T-test (t21), AIMS sub-scale 5: −1.78
[1]; arms, hands, placebo vs. melatonin
  p of T-test, AIMS sub-scale 5: 0.09
[1]; change from baseline after melatonin, placebo −1±1.3
  decrease, ie. improvement (AIMS), after administration: −3±2.1
[1]; facial and oral movements, baseline/administration difference, placebo vs. melatonin
  T-test (t21), AIMS sub-scale 1: −1
[1]; facial and oral movements, placebo vs. melatonin
  p of T-test, AIMS sub-scale 1: 0.33
[1]; highly significant
  p (MANOVA) of decrease after melatonin compared with placebo: < 0.0001
[1]; implication due to abnormal movements, baseline/administration difference, placebo vs. melatonin
  T-test (t21), AIMS sub-scale 9: −1.14
[1]; implication due to abnormal movements, placebo vs. melatonin
  p of T-test, AIMS sub-scale 9: 0.27
[1]; jaw, baseline/administration difference, placebo vs. melatonin
  T-test (t21), AIMS sub-scale 3: −1.14
[1]; jaw, placebo vs. melatonin
  p of T-test, AIMS sub-scale 3: 0.27
[1]; legs, knees, baseline/administration difference, placebo vs. melatonin
  T-test (t21), AIMS sub-scale 6: −2.81
[1]; legs, knees, placebo vs. melatonin, significant outcome
  p of T-test, AIMS sub-scale 6: 0.01*
[1]; lips and perioral area, baseline/administration difference, placebo vs. melatonin
  T-test (t21), AIMS sub-scale 2: −3.92
[1]; lips and perioral area, placebo vs. melatonin, significant outcome
  p of T-test, AIMS sub-scale 2: <0.001*
[1]; neck, shoulder, baseline/administration difference, placebo vs. melatonin
  T-test (t21), AIMS sub-scale 7: −2.49
[1]; neck, shoulder, placebo vs. melatonin, significant outcome
  p of T-test, AIMS sub-scale 7: 0.02*
[1]; patient's awareness, baseline/administration difference, placebo vs. melatonin
  T-test (t21), AIMS sub-scale 10: delta = 0
[1]; problem with teeth, baseline/administration difference, placebo vs. melatonin
  T-test (t21), AIMS sub-scale 11: delta = 0
[1]; severity of abnormal movements, baseline/administration difference, placebo vs. melatonin
  T-test (t21), AIMS sub-scale 8: −1.82
[1]; severity of abnormal movements, placebo vs. melatonin
  p of T-test, AIMS sub-scale 8: 0.08
[1]; tongue, baseline/administration difference, placebo vs. melatonin
  T-test (t21), AIMS sub-scale 4: −0.81
[1]; tongue, placebo vs. melatonin
  p of T-test, AIMS sub-scale 4: 0.43
[2]
  severity of movements after melatonin: non-significant reduction of the severity of movements
